Laboratory results taken from US9420793B2, “Antiparasitic compounds” (Avista Pharma Solutions, priority 2015, dated 2016).
“And” between values parts separate entries of the source, which are not always exact repeats. Equal entries are not always repeated. Where two headings read alike, the source gives them in different places.

Columns and labels:
Ctenocephalides felis [1] = experiment: Ctenocephalides felis residual contact assay; settings: for Contact EC50: 48 h, fleas
Protocol: Ctenocephalides felis Residual Contact Assay
A solution of the test compounds, individually and in combination was dispensed onto a substrate placed into a glass vial. The treated surface was allowed to dry before infesting each vial with 10 adult Ctenocephalides felis. The treated vials were held in a controlled environment and assessment was performed at 6, 24 and 48 hours after application in comparison with untreated controls glass vials and solvent-treated glass vials. Compounds were tested in duplicate and two separate trials (n=4).

R. sanguineus = experiment: In vitro tick contact assay, comparison with standards
Protocol: (§1) A solution of the test compounds was used to coat the inner wall of glass vials and to treat two filter papers. Once dried, one filter paper was placed in the cap of the vial and the other in the bottom of the vial. Each treated vial was infested with 10 ticks. Contact of the ticks with residues was induced by holding the vials in a controlled environment and assessment was performed at 12, 24 and 48 hours after application in comparison with untreated glass vials and solvent-treated glass vials. Compounds were tested in duplicate and two separate trials (n=4).

D. variabilis = experiment: as above
Protocol: as §1

A. americanum = experiment: as above
Protocol: as §1

I. scapularis = experiment: as above
Protocol: as §1

Ctenocephalides felis [2] = settings: for Ingestion EC50: fleas
Protocol: In Vitro Evaluation of Ingestion Activity Against Fleas (Ctenocephalides Felis)
For flea ingestion tests, an aliquot of each compound stock was added to organic bovine blood contained in an artificial feeding container, with a final DMSO concentration of 0.5%. Ten newly emerged unfed fleas, Ctenocephalides felis, from a laboratory colony, 0-7 days old, were aspirated into a chamber and exposed to the appropriate feeding container and held in a controlled environment at 35° C. Fleas were evaluated for % mortality at 24, 48, and 72 hours post infestation. Fleas showing normal movement and/or jumping ability were considered viable and those showing no movement after tapping the vials were scored as dead. The compound+blood mixture was replaced every 24 hours.

[3] = tested on: Dirofilaria immitis microfilariae; experiment: Dirofilaria immitis microfilariae motility assay; settings: 72 h, read-out: concentration at which active, microfilariae motility
Aedes aegypti = experiment: In vitro evaluation of ingestion activity against mosquitoes; settings: at 20 hours, compound in bovine blood, read-out: concentration at which active, mosquito ingestion
Protocol: In Vitro Evaluation of Ingestion Activity Against Mosquitoes (Aedes aegypti)
A solution of test compounds is added to bovine blood contained in a feeding chamber to reach the desired final concentration. Blood spiked with DMSO is prepared to serve as control. Adult female mosquitoes are introduced at the bottom of the chamber and allowed to feed on blood mixtures containing DMSO or test compounds for 30 minutes. Fully engorged mosquitoes are sorted into clean chambers after the blood meal and monitored for survival over 3 days. Replicates containing 10 mosquitoes are performed with each test compound concentration and results calculated as % mortality at specific time points.

SMILES	Contact EC50 (Ctenocephalides felis [1])	R. sanguineus Contact EC50 (R. sanguineus; 24 h)	R. sanguineus Contact EC50 (R. sanguineus; 48 h)	D. variabilis Contact EC50 (D. variabilis; 24 h)	D. variabilis Contact EC50 (D. variabilis; 48 h)	A. americanum Contact EC50 (A. americanum; 24 h)	A. americanum Contact EC50 (A. americanum; 48 h)	I. scapularis Contact EC50 (I. scapularis; 24 h)	I. scapularis Contact EC50 (I. scapularis; 48 h)	Ingestion EC50 (Ctenocephalides felis [2]; 2 h)	Ingestion EC50 (Ctenocephalides felis [2]; 24 h)	minimal effective concentration [3]	minimal effective concentration (Aedes aegypti)	flea potency by contact relative to commercially available standards (Ctenocephalides felis [1]; versus fluralaner, afoxolaner)	flea potency by ingestion relative to commercially available standards (Ctenocephalides felis [2]; versus fluralaner, afoxolaner, (+/−)sarolaner)
O=C(CNC(=O)c1ccc(C2=NOC(c3cc(Cl)cc(C(F)(F)F)c3)(C(F)(F)F)C2)c2ccccc12)NCC(F)(F)F (centres unmarked) [Afoxolaner]	>50 ppm	>50 ppm	20.2 ± 5.0 ppm	>50 ppm	12.35 ± 0.5 ppm	31.6 ppm and > 50 ppm	11.3 ± 2.3 ppm	17.8 ± 5.9 ppm	5.31 ± 1.8 ppm	6.0 ± 2.9 ppm	0.13 ± 0.05 ppm	–	–	–	–
O=C(CC(F)(F)F)N1CC2(C1)OCc1cc(C3=NSC(c4cc(Cl)c(F)c(Cl)c4)(C(F)(F)F)C3)ccc12 (centres unmarked) [Compound 1, 1-[6-[5-(3,5-dichloro-4-fluoro-phenyl)-5-(trifluoromethyl)-4H-isothiazol-3-yl]spiro[1H-isobenzofuran-3,3′-azetidine]-1′-yl]-3,3,3-trifluoro-propan-1-one]	29.0 ± 0.3 ppm	17.0 ± 3.8 ppm	4.6 ± 3.0 ppm	12.2 ± 0.6 ppm	5.0 ± 1.6 ppm	13.5 ± 5.1 ppm	2.7 ± 0.4 ppm	2.0 ± 0.4 ppm	0.04 ± 0.02 ppm	2.6 ± 0.3 ppm	0.20 ± 0.10 ppm	< 10 µM	< 1 µg/mL	superior potency by contact	comparable potency by ingestion
